Measured values from ChEMBL document CHEMBL3991601, “The target landscape of clinical kinase drugs” (Science, 2017).
Activity calls are given as the source filed them. For most assays here, no stated cut-off is given here; in the data, actives have a measured Kd and inactives only a lower limit.

Key:
[1] = molecular target: T1, Serine/threonine-protein kinase ICK (Homo sapiens, UniProt Q9UPZ9)
T1 sequence (Q9UPZ9 whole entry): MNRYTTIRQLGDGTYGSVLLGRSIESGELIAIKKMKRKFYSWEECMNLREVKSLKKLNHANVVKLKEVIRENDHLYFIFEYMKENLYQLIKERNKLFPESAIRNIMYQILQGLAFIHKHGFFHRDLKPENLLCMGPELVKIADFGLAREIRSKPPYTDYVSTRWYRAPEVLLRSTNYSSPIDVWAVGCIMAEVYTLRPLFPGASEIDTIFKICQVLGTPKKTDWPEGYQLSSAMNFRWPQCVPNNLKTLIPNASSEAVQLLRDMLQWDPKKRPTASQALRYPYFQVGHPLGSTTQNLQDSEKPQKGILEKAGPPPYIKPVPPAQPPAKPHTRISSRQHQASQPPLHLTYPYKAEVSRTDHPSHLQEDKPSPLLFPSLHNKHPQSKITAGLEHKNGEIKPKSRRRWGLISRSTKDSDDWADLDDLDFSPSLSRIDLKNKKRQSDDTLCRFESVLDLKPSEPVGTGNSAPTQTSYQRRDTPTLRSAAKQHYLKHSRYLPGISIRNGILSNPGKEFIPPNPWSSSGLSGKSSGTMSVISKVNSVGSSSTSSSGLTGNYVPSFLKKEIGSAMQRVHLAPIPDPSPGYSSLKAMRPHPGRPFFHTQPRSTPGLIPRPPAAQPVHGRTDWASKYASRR

[2] = molecular target: Tyrosine-protein kinase ABL2 (Homo sapiens, UniProt P42684)
Obg-like ATPase 1 = Obg-like ATPase 1 (Homo sapiens, UniProt Q9NTK5)
[3] = molecular target: T2, Adenine phosphoribosyltransferase (Homo sapiens, UniProt P07741)
T2 sequence (P07741 whole entry): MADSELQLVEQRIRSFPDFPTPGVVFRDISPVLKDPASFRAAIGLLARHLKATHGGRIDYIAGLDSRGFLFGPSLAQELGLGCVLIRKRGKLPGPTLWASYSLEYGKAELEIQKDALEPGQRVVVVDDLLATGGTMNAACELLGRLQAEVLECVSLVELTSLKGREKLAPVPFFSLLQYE

[4] = molecular target: T3, Interleukin-1 receptor-associated kinase 3 (Homo sapiens, UniProt Q9Y616)
T3 sequence (Q9Y616 whole entry): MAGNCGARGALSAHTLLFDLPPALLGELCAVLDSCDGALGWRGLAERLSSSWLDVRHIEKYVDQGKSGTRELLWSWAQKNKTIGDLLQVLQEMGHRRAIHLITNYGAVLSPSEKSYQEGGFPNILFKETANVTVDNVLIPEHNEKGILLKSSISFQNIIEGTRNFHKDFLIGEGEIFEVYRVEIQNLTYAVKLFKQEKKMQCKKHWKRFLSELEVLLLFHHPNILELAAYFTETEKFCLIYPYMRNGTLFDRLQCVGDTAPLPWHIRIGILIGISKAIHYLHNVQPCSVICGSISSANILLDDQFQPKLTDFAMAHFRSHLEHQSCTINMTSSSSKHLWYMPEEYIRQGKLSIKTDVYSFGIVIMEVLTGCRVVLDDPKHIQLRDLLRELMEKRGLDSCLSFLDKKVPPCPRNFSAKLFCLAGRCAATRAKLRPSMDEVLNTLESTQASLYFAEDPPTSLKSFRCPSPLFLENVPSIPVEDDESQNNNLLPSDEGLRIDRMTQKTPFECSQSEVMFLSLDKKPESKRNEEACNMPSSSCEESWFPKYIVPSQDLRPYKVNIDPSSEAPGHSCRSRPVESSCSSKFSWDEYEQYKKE

[5] = molecular target: Ras-related protein Rab-6A (Homo sapiens, UniProt P20340)
[6] = molecular target: T4, Serine/threonine-protein kinase D2 (Homo sapiens, UniProt Q9BZL6)
T4 sequence (Q9BZL6 whole entry): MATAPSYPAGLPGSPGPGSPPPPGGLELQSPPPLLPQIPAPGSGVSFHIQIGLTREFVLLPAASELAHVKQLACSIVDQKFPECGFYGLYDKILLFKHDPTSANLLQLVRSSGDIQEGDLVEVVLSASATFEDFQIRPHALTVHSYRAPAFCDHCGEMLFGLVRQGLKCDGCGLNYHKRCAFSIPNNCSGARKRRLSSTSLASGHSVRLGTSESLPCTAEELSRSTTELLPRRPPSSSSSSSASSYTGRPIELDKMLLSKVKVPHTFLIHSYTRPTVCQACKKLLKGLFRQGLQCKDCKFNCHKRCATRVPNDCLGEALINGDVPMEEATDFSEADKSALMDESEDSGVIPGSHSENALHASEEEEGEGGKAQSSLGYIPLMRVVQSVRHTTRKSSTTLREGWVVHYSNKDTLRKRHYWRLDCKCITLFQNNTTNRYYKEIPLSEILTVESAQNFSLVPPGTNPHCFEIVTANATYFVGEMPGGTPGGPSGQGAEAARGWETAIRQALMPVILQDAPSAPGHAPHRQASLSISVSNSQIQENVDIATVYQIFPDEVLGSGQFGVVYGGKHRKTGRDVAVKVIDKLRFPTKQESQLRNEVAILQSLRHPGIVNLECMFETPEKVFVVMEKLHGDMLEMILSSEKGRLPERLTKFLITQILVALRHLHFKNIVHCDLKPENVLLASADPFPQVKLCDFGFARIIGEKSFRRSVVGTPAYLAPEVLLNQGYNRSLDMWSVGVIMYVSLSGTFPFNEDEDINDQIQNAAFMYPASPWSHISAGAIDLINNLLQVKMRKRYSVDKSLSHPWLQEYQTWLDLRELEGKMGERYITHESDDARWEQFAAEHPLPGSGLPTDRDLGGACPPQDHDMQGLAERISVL

Ephrin type-A receptor 2 = Ephrin type-A receptor 2 (Homo sapiens, UniProt P29317)
ADP/ATP translocase 3 = molecular target: T5, ADP/ATP translocase 3 (Homo sapiens, UniProt P12236)
T5 sequence (P12236 whole entry): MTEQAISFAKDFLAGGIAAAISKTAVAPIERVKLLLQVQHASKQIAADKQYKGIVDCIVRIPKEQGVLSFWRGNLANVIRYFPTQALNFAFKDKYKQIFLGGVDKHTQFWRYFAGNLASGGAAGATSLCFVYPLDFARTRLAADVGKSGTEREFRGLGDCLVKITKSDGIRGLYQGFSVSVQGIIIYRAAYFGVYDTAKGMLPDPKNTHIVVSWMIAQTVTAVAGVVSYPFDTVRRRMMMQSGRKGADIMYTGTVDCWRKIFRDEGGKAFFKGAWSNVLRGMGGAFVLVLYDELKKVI

Chain of Obg-like ATPase 1 (Q9NTK5 whole entry, looked up): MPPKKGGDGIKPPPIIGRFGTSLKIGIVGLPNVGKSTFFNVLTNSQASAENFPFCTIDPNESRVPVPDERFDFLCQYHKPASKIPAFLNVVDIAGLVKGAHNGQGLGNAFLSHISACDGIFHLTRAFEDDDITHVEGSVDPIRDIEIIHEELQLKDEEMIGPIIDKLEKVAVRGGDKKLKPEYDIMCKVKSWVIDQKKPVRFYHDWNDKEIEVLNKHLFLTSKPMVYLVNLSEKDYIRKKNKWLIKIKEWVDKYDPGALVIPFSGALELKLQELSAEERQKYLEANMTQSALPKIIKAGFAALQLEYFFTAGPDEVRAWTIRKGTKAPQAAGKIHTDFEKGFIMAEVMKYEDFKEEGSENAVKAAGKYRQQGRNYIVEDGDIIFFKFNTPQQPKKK
Chain of Tyrosine-protein kinase ABL2 (P42684 whole entry): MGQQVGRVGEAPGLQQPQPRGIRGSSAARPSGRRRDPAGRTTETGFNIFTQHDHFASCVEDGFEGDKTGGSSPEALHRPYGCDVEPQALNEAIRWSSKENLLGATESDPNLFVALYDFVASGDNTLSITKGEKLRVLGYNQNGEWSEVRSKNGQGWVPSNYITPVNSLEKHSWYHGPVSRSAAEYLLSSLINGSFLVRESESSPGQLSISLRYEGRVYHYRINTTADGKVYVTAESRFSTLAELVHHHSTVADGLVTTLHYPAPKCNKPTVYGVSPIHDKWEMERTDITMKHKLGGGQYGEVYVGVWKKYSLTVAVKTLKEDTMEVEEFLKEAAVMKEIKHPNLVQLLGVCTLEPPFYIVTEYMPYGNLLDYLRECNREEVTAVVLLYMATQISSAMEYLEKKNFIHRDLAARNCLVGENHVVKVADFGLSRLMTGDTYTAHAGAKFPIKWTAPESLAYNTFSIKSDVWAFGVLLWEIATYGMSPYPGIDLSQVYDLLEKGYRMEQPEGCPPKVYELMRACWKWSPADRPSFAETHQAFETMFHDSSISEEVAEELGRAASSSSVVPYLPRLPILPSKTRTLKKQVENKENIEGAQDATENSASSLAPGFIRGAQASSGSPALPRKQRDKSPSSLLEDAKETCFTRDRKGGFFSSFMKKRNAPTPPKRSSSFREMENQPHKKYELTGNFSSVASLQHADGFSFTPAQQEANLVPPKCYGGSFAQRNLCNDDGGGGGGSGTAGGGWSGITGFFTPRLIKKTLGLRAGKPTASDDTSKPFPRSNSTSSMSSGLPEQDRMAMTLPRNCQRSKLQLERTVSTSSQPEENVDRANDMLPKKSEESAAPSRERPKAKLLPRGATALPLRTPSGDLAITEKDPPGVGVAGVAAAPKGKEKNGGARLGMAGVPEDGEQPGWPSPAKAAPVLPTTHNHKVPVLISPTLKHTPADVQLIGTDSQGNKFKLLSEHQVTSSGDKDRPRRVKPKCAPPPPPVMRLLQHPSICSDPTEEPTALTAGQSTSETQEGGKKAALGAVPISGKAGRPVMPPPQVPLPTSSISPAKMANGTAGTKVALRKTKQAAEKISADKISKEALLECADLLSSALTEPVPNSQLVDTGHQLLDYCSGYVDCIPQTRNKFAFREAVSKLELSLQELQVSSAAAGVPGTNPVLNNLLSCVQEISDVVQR
Chain of Ras-related protein Rab-6A (P20340 whole entry): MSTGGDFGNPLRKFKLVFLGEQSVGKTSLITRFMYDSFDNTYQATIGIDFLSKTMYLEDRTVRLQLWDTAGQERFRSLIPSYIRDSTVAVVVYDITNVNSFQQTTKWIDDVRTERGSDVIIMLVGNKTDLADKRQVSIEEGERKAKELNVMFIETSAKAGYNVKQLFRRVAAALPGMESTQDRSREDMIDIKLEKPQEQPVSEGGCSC
Chain of Ephrin type-A receptor 2 (P29317 whole entry): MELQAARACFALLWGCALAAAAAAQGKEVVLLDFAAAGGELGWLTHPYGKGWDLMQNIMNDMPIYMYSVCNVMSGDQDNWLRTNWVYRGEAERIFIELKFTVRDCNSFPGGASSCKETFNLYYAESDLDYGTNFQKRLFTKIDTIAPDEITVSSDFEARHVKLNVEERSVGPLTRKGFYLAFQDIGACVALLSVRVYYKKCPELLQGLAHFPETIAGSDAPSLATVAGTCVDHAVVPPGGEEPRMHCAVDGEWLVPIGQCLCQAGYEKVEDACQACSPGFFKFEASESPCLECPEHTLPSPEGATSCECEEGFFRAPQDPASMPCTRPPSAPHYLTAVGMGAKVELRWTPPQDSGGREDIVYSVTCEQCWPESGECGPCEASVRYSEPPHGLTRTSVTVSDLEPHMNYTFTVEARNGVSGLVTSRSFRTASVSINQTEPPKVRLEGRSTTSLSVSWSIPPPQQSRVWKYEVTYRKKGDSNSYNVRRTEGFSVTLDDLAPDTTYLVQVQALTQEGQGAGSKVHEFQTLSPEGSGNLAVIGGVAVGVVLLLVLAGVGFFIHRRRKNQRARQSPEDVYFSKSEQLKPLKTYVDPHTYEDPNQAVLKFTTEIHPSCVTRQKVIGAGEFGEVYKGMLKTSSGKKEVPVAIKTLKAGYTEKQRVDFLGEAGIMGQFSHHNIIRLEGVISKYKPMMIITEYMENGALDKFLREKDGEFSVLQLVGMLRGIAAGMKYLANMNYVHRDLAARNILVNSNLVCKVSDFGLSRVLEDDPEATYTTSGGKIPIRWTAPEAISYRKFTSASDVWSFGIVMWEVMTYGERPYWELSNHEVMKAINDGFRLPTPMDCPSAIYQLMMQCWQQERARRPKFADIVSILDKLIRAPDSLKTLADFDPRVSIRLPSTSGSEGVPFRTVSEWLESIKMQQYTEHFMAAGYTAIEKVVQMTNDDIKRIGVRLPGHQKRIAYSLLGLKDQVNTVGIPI

| SMILES | Kd [1] | Kd [2] | Kd (Obg-like ATPase 1) | Kd [3] | Kd [4] | Kd [5] | Kd [6] | Kd (Ephrin type-A receptor 2) | Kd (ADP/ATP translocase 3) |
| --- | --- | --- | --- | --- | --- | --- | --- | --- | --- |
| COc1cc2ncnc3c2cc1OCCCCCN(C)Cc1ccc(Br)cc1N3 [JNJ-26483327] | > 30 µM (inactive) | > 30 µM (inactive) | > 30 µM (inactive) | > 30 µM (inactive) | > 30 µM (inactive) | > 30 µM (inactive) | > 30 µM (inactive) | > 30 µM (inactive) | > 30 µM (inactive) |
| C#Cc1cccc(Nc2ncnc3cc4c(cc23)OCCOCCOCCO4)c1 [ICOTINIB] | > 30 µM (inactive) | > 30 µM (inactive) | > 30 µM (inactive) | > 30 µM (inactive) | > 30 µM (inactive) | > 30 µM (inactive) | > 30 µM (inactive) | > 30 µM (inactive) | > 30 µM (inactive) |
| Cc1cc(C(=O)Nc2cc(Oc3ccc4nc(NC(=O)C5CC5)cn4n3)ccc2C)n(C)n1 [TAK-593] | > 30 µM (inactive) | 4.06 µM (active) | > 30 µM (inactive) |  | > 30 µM (inactive) | > 30 µM (inactive) | > 30 µM (inactive) | > 30 µM (inactive) | > 30 µM (inactive) |
| CN(c1ncccc1CNc1nc(Nc2ccc3c(c2)CC(=O)N3)ncc1C(F)(F)F)S(C)(=O)=O [PF-00562271] | > 30 µM (inactive) | > 30 µM (inactive) | > 30 µM (inactive) | > 30 µM (inactive) | > 30 µM (inactive) | > 30 µM (inactive) |  |  | > 30 µM (inactive) |
| S=C(NCc1ccc2c(c1)OCO2)N1CCN(c2ncnc3c2oc2ccccc23)CC1 [AMUVATINIB] |  | > 30 µM (inactive) | > 30 µM (inactive) | > 30 µM (inactive) | > 30 µM (inactive) | > 30 µM (inactive) | > 30 µM (inactive) | > 30 µM (inactive) | > 30 µM (inactive) |
| Cc1c(Cn2c(C)nc3c(C(=O)O)cc(N4CCOCC4)cc32)cccc1C(F)(F)F [GSK-2636771] | > 30 µM (inactive) | > 30 µM (inactive) | > 30 µM (inactive) |  | > 30 µM (inactive) | > 30 µM (inactive) | > 30 µM (inactive) | > 30 µM (inactive) | > 30 µM (inactive) |
| O=C(NC[C@H](O)CO)c1ccncc1Nc1ccc(I)cc1F [PIMASERTIB] |  | > 30 µM (inactive) | > 30 µM (inactive) | > 30 µM (inactive) | > 30 µM (inactive) | > 30 µM (inactive) | > 30 µM (inactive) | > 30 µM (inactive) | > 30 µM (inactive) |
| NC[C@@](O)(c1ccc(Cl)cc1)c1ccc(-c2cn[nH]c2)cc1 [AT-13148] |  | > 30 µM (inactive) | > 30 µM (inactive) | > 30 µM (inactive) | > 30 µM (inactive) |  | > 30 µM (inactive) | > 30 µM (inactive) |  |
| N#CCNC(=O)c1ccc(-c2ccnc(Nc3ccc(N4CCOCC4)cc3)n2)cc1 [MOMELOTINIB] |  | > 30 µM (inactive) | > 30 µM (inactive) | > 30 µM (inactive) | > 30 µM (inactive) | > 30 µM (inactive) | 0.531 µM (active) | > 30 µM (inactive) | > 30 µM (inactive) |
| Cc1c(NC(=O)OC[C@@H]2COCCN2)cn2ncnc(Nc3ccc4c(cnn4Cc4cccc(F)c4)c3)c12 [AC-480] |  | > 30 µM (inactive) | > 30 µM (inactive) | > 30 µM (inactive) | > 30 µM (inactive) | > 30 µM (inactive) | > 30 µM (inactive) | > 30 µM (inactive) | > 30 µM (inactive) |

Other lines, results leading:

| Kd [1] | Kd [2] | Kd (Obg-like ATPase 1) | Kd [3] | Kd [4] | Kd [5] | Kd [6] | Kd (Ephrin type-A receptor 2) | Kd (ADP/ATP translocase 3) | SMILES |
| --- | --- | --- | --- | --- | --- | --- | --- | --- | --- |
| > 30 µM (inactive) | > 30 µM (inactive) | > 30 µM (inactive) | > 30 µM (inactive) | > 30 µM (inactive) | > 30 µM (inactive) | > 30 µM (inactive) | > 30 µM (inactive) | > 30 µM (inactive) | Cn1c(=O)c(F)c(Nc2ccc(I)cc2F)c2c(=O)n(C[C@@H](O)CO)cnc21 [TAK-733] |
| > 30 µM (inactive) | > 30 µM (inactive) | > 30 µM (inactive) |  | > 30 µM (inactive) | > 30 µM (inactive) | > 30 µM (inactive) | > 30 µM (inactive) | > 30 µM (inactive) | COc1cc2ncnc(Nc3ccc(F)c(Cl)c3)c2cc1NC(=O)/C=C/CN1CCCCC1 [DACOMITINIB ANHYDROUS] |
| > 30 µM (inactive) | > 30 µM (inactive) | > 30 µM (inactive) | > 30 µM (inactive) | > 30 µM (inactive) | > 30 µM (inactive) | > 30 µM (inactive) | > 30 µM (inactive) | > 30 µM (inactive) | COc1cc2ncnc(Nc3ccc(O)cc3)c2cc1OC [WHI-P131] |
| > 30 µM (inactive) |  | > 30 µM (inactive) | > 30 µM (inactive) |  | > 30 µM (inactive) | > 30 µM (inactive) | > 30 µM (inactive) | > 30 µM (inactive) | CCOc1ccn(-c2ccc(F)cc2)c(=O)c1C(=O)Nc1ccc(Oc2ccnc(N)c2Cl)c(F)c1 [BMS-777607] |
| > 30 µM (inactive) | > 30 µM (inactive) | > 30 µM (inactive) |  | > 30 µM (inactive) | > 30 µM (inactive) | > 30 µM (inactive) | > 30 µM (inactive) | > 30 µM (inactive) | CNC(=O)c1cc(COc2nnc(Nc3ccc(Cl)cc3)c3ccoc23)ccn1 [TELATINIB] |
| > 30 µM (inactive) | 1.03 µM (active) | > 30 µM (inactive) |  | > 30 µM (inactive) | > 30 µM (inactive) | > 30 µM (inactive) | 1.19 µM (active) | > 30 µM (inactive) | Cc1cc(-c2cc(OC(=O)c3ccccc3)ccc2Cl)cc2nnc(Nc3ccc(OCCN4CCCC4)cc3)nc12 [TG100-801] |
